Results on 39 compounds are retold here after the PolyMetriX glass transition set.

In the case of `*OS(=O)(=O)c1cccc(S(=O)(=O)Oc2ccc(C3(c4ccc(*)cc4)CCCCC3)cc2)c1` (repeat unit), the glass transition temperature is 127.00 °C. With `*O[Si](Oc1ccc(C2(c3ccc(*)cc3)c3ccccc3-c3ccccc32)cc1)(c1ccccc1)c1ccccc1` (repeat unit), the glass transition temperature was determined as 166.00 °C. In turn, `*Oc1c(C)cc(-c2cc(C)c(Oc3ccc(C(=O)c4ccc(*)cc4)cc3)c(CBr)c2)cc1CBr` (repeat unit) came in with a glass transition temperature of 158.17 °C. To `*Oc1cc(C(C)(C)C)c(Oc2ccc(C(=O)Nc3ccc(C(c4ccc(NC(=O)c5ccc(*)cc5)cc4)(C(F)(F)F)C(F)(F)F)cc3)cc2)cc1C(C)(C)C` (repeat unit) belongs 268.00 °C; to `*Oc1cc(C)c(C(c2cc(C(C)C)c(Oc3ccc(C(=O)c4ccc(*)cc4)cc3)cc2C)c2ccccc2C(=O)O)cc1C(C)C` (repeat unit), 228.00 °C.

Regarding `*Oc1ccc(/C(=C/c2ccc(-c3ccc(/C=C(\c4ccccc4)c4ccc(OC(=O)c5cccc(C(*)=O)c5)cc4)cc3)cc2)c2ccccc2)cc1` (repeat unit), the glass transition temperature worked out at 224.00 °C. With `*Oc1ccc(/N=N/c2ccc(Cc3ccc(/N=N/c4ccc(OC(=O)c5ccc(/N=N/c6ccc(C(*)=O)cc6)cc5)cc4)cc3[N+](=O)[O-])c([N+](=O)[O-])c2)cc1` (repeat unit), the glass transition temperature stood at 160.00 °C. For `*Oc1ccc(C(=C(Cl)Cl)c2ccc(OC(*)=O)cc2)cc1` (repeat unit), the glass transition temperature was 167.00 °C. With `*Oc1ccc(C(c2ccc(OC(*)=O)cc2)C2CC3CC2C2C4CCC(C4)C32)cc1` (repeat unit), the glass transition temperature came to 253.00 °C. For `*Oc1ccc(C(c2ccc(OC(*)=O)cc2)C2CCCCC2)cc1` (repeat unit), the glass transition temperature was 190.00 °C. With `*Oc1ccc(C(c2ccc(OC(*)=S)cc2)c2cccc3ccccc23)cc1` (repeat unit), the glass transition temperature came to 191.00 °C.

Regarding `*Oc1ccc(C(c2ccc(OC(=O)c3ccc(Oc4ccc(C(*)=O)cc4)cc3)cc2)(C(F)(F)F)C(F)(F)F)cc1` (repeat unit), the glass transition temperature is 181.00 °C.

Consider `*Oc1ccc(C(c2ccccc2)(c2ccccc2)c2ccc(OC(*)=O)cc2)cc1` (repeat unit), for which the glass transition temperature stood at 213.00 °C. Turning to `*Oc1ccc(C(c2ccccc2)(c2ccccc2)c2ccc(Oc3ccc4c(=O)n5c6cc(-c7ccc8c(c7)nc7c9ccc(*)c%10cccc(c(=O)n87)c%109)ccc6nc5c5cccc3c45)cc2)cc1` (repeat unit), the glass transition temperature amounted to 357.00 °C. Under `*Oc1ccc(C2(c3ccc(OC(*)=O)c(Cl)c3)CCCCC2)cc1Cl` (repeat unit) stands 179.00 °C; under `*Oc1ccc(C2(c3ccc(OC(*)=O)cc3)CC3CCC2C3)cc1` (repeat unit), 235.00 °C. In the case of `*Oc1ccc(C2(c3ccc(OC(*)=O)cc3)CCCCCC2)cc1` (repeat unit), the glass transition temperature came to 155.00 °C. Compound `*Oc1ccc(C2(c3ccc(OC(*)=O)cc3)CCc3ccccc32)cc1` (repeat unit) showed a glass transition temperature of 219.00 °C. In turn, `*Oc1ccc(C2(c3ccc(OC(=O)C45CC6CC(CC(C(*)=O)(C6)C4)C5)cc3)c3ccccc3-c3ccccc32)cc1` (repeat unit) came in with a glass transition temperature of 335.00 °C. Under `*Oc1ccc(C2(c3ccc(OC(=O)c4ccc(C(*)=O)cc4)cc3)CCC3CCCCC3C2)cc1` (repeat unit) stands 275.00 °C; under `*Oc1ccc(C2(c3ccc(OC(=O)c4ccc(C(*)=O)cc4)cc3)CCCCC2)cc1` (repeat unit), 275.00 °C; under `*Oc1ccc(C2(c3ccc(OC(=O)c4ccc(C(*)=O)cc4)cc3)c3ccccc3C(=O)c3ccccc32)cc1` (repeat unit), 400.00 °C.

Take `*Oc1ccc(C2(c3ccc(OC(=O)c4cccc(C(*)=O)c4)cc3)CCC3CCCCC3C2)cc1` (repeat unit): the glass transition temperature came out at 248.00 °C. `*Oc1ccc(Cc2ccc(Cc3ccc(OC(*)=O)cc3)cc2)cc1` (repeat unit): the glass transition temperature stood at 79.50 °C. Regarding `*Oc1ccc(Cc2ccc(OC(*)=S)cc2)cc1` (repeat unit), the glass transition temperature turned out to be 95.00 °C. `*Oc1ccc(Oc2ccc(C(=O)Nc3ccc(Oc4ccc(-c5ccc(Oc6ccc(NC(=O)c7ccc(*)cc7)cc6)cc5)cc4)cc3)cc2)cc1C` (repeat unit) came in with a glass transition temperature of 220.00 °C. Take `*Oc1ccc(Oc2ccc(C(=O)c3ccc(-c4ccc(C(=O)c5ccc(*)cc5)cc4)cc3)cc2)cc1-c1ccc(S(=O)(=O)O)c(C)c1` (repeat unit): the glass transition temperature was found to be 182.00 °C. In turn, `*Oc1ccc(Oc2ccc(C(=O)c3cccc4cccc(C(=O)c5ccc(*)cc5)c34)cc2)cc1C(C)(C)C` (repeat unit) had a glass transition temperature of 230.00 °C.

Take `*Oc1ccc(Oc2ccc(S(=O)(=O)c3ccc(Oc4ccc(C(=O)c5ccc(*)cc5)cc4)cc3)cc2)cc1` (repeat unit): the glass transition temperature worked out at 186.00 °C. To `*Oc1ccc(S(=O)(=O)c2ccc(Oc3ccc(-c4ccc(Oc5ccc(C(=O)c6ccc(*)cc6)cc5)cc4)cc3)cc2)cc1` (repeat unit) belongs 206.00 °C. `*c1ccc(Cc2ccc(N3C(=O)c4ccc(Oc5ccc(C6(c7ccc(Oc8ccc9c(c8)C(=O)N(*)C9=O)cc7)CCC(c7ccccc7)CC6)cc5)cc4C3=O)cc2)cc1` (repeat unit) registered a glass transition temperature of 232.00 °C. In turn, `*c1ccc(Cc2ccc(N3C(=O)c4ccc(Oc5ccc(C6(c7ccc(Oc8ccc9c(c8)C(=O)N(*)C9=O)cc7)CCCCCCCCCCC6)cc5)cc4C3=O)cc2)cc1` (repeat unit) gave a glass transition temperature of 240.00 °C. With `*c1ccc(OC(=O)Oc2ccc(C3(*)OC(=O)c4ccccc43)cc2)cc1` (repeat unit), the glass transition temperature turned out to be 252.20 °C. Consider `*c1ccc(OC(=O)c2ccc(C(=O)Oc3ccc(C4(*)OCc5ccccc54)cc3)cc2)cc1` (repeat unit), for which the glass transition temperature is 312.00 °C.

In turn, `*c1ccc(OC(=O)c2ccc(C(=O)Oc3ccc(C4(*)c5ccccc5Oc5ccccc54)cc3)cc2)cc1` (repeat unit) showed a glass transition temperature of 252.00 °C.

`*c1ccc(OC(=O)c2ccc([Si](c3ccccc3)(c3ccccc3)c3ccc(C(=O)Oc4ccc(C5(*)OC(=O)c6ccccc65)cc4)cc3)cc2)cc1` (repeat unit) returned a glass transition temperature of 250.00 °C. Turning to `*c1ccc(OC(=O)c2cccc(C(=O)Oc3ccc(C4(*)C(=O)Nc5c(Cl)cc(Cl)cc54)cc3)c2)cc1` (repeat unit), the glass transition temperature turned out to be 270.00 °C. As to `*c1ccc(Oc2ccc(-c3ccc(Oc4ccc(N5C(=O)c6ccc(Oc7ccc(C(c8ccc(Oc9ccc%10c(c9)C(=O)N(*)C%10=O)cc8)(C(F)(F)F)C(F)(F)F)cc7)cc6C5=O)cc4)cc3)cc2)cc1` (repeat unit), the glass transition temperature is 217.00 °C. Under `*c1ccc(Oc2ccc(C3(c4ccc(Oc5ccc(N6C(=O)c7ccc(Oc8ccc(C9(c%10ccc(Oc%11ccc%12c(c%11)C(=O)N(*)C%12=O)cc%10)CCC(c%10ccccc%10)CC9)cc8)cc7C6=O)cc5)cc4)CC4CC3C3CCCC43)cc2)cc1` (repeat unit) stands 255.00 °C.
